Structures are written as SMILES. Where two headings read alike, the source gives them in different places.

Assay [1] concerns chimeric RARβ receptor protein. As to the kind of experiment: Cationic Liposome Mediated Transfection Assay, RARβ. Type of assay: cell-based. As to conditions: Table 1; 50% of maximum CAT activity of all-trans retinoic acid; HeLa cells. The protocol:
(§1) The above-mentioned Cationic Liposome Mediated Transfection Assay assay by which the activity of a test compound as a potential agonist of the RXR and RAR receptor sites is determined, is performed substantially as reported by Feigner P. L. and Holm M. (1989) Focus, 11-2, and is described below first in principle and thereafter in the form of specific instructions how to perform the assay.
(§2) In connection with this assay it is known that retinoic acid receptors arena member of the steroid/thyroid receptor super family and that they contain domains which are interchangeable within individual receptors. Thus, plasmids for chimeric retinoid receptors containing estrogen DNA binding domain and estrogen response element chloramphenicol acetyl-transferase enzyme are constructed and are grown in specific cultured bacteria. These plasmids respectively code for chimeric RARα, RARβ, RARγ, RXRα receptor proteins, and for the chloramphenicol acetyl A transferase (CAT) enzyme protein. The bacteria with these plasmids are obtainable in accordance with the procedure set forth in the article titled "Nuclear Retinoic Acid Receptors: Cloning, Analysis, and Function", M. Pfahl et al , Methods in Enzymology 189, p 256-270 (1990) which is incorporated herein by reference. The detailed procedure how to isolate the DNA plasmids from the respective bacteria is also set forth below in detail, in the form of specific instructions under the title "Supercoiled Plasmid Isolation".
(§3) Thus, in accordance with the test procedure, DNA plasmid which codes for one of the chimeric RARα, RARβ, RARγ, or RXRα receptor proteins is transfected into cultures of HeLa cells. […] As is known and will be readily understood by those skilled in the art, especially in view of the above-cited M. Pfahl et al. article, chimeric retinoid receptors involved in this assay include a ligand binding domain which recognizes and binds specific agonist molecules, such as retinoic acid and analogs. […]

Assay [2] deals with chimeric RARγ receptor protein. Briefly: Cationic Liposome Mediated Transfection Assay, RARγ. As to conditions: Table 1; 50% of maximum CAT activity of all-trans retinoic acid; HeLa cells. Type of assay: cell-based. The protocol:
as §1, §2, §3

Assay [3] relates to chimeric RXRα receptor protein. Briefly: Cationic Liposome Mediated Transfection Assay, RXRα. Type of assay: cell-based. As to the method: as §1, §2
Thus, in accordance with the test procedure, DNA plasmid which codes for one of the chimeric RARα, RARβ, RARγ, or RXRα receptor proteins is transfected into cultures of HeLa cells. It is for this purpose that HeLa cells are grown in a medium during the first day of the assay detailed below as the "Cationic Liposome Mediated Transfection Assay". In the transfection procedure, which is performed during the second day of the transfection assay, the DNA plasmid coding for the CAT enzyme is also added to each cell culture, in addition to the respective chimeric RARα, or RARβ etc. coding plasmid. As is known and will be readily understood by those skilled in the art, especially in view of the above-cited M. Pfahl et al. article, chimeric retinoid receptors involved in this assay include a ligand binding domain which recognizes and binds specific agonist molecules, such as retinoic acid and analogs. These chimeric protein receptors (which were constructed in accordance with the teachings of the M. Pfahl. et al, article) also contain a a DNA binding domain, which is capable of binding to the "estrogen response element" (a DNA fragment) attached to the DNA plasmid coding for the CAT enzyme. […]

The subject of assay [4] is RAR and RXR receptor sites. Briefly: RAR versus RXR agonist specificity (in words). Type of assay: cell-based. As to conditions: result in words. As to the method:
The data obtained in the assay are evaluated and expressed as follows. For each test compound and for each subspecies of the RAR receptors a graph (or the mathematical equivalent of a graph) is prepared where the "counts per minute" (cpm) obtained in the scintillation counter measurements are plotted (on the y axis) against the concentration of the test compound. A similar graph (or mathematical equivalent) is prepared for retinoic acid. […] This is illustrated in the graphs of FIG. 1 and FIG. 3.
This reference compound is a known agonist of the RXRα receptor site.

For assay [5], the system named is HL-60 cdm-1 cells. As to the kind of experiment: Assay 1: HL-60 cdm-1 cell count and microscopy after 72 hours. The assay is classed as cell-based, human. As to conditions: 1 uM; for cell counts: control 5.1 × 10^+5 / ml; for inspection of microscope slides: versus control. An excerpt: Sedimented cells were air dried, fixed in absolute methanol, stained with a Diff-quick reagent kit, mounted in Permount and visualized by brightfield light microscopy.

The subject of assay [6] is HL-60 cdm-1 cells. As to the kind of experiment: Assay 2: DNA fragmentation (laddering) in HL-60 cdm-1 cells. Type of assay: cell-based, human. As to conditions: 1 μM, 48 hours; 1% agarose gel. As to the method: HL-60 cdm-1 cells were placed in a T-25 tissue culture flask in 8 ml of media (RPMI-1640 containing bovine insulin 5 mg/L, human transferin 5 mg/L and Na Selenite 5 μg/L) at a density of 2×10^5 cells/ml. AGN 191701 (Compound 1) was added to a final concentration of 1 μM (8 μl of a 1 mM stock solution) and the cells were cultured in a humidified incubator (5% CO2) at 37° C. in the dark for 48 hours. The media and cells were removed from the flask, the cells were pelleted (1100 rpm/7 min Beckman desk top centrifuge), the pellet was washed once with phosphate buffered saline (PBS) and then the pelleted cells were lysed by the addition of 200 μl of a solution containing 20 mM Tris-HCl pH 7.4, 0.4 mM EDTA, 0.4% Triton X-100. The lysate was centrifuged for 5 minutes in a microfuge (14,000 rpm) and the supernatant adjusted to a final concentration of 0.5M NaCl and 50% isopropanol. The solution was allowed to precipitate overnight at -20° C. and the precipitate that formed was pelleted in a microfuge (10 min, 14,000 rpm). The pellet was washed once in 70% ethanol, it was resuspended in 50 μl Tris EDTA (10 mM Tris HCl ph 7.4, 0.4 mM EDTA) and mixed with gel loading buffer. […] DNA was detected by ethidium bromide staining followed by visualization and photography under a UV lamp.

Assay [7] relates to HL-60 cdm-1 cells. As to the kind of experiment: Assay 3: morphology of HL-60 cdm-1 cells at 4 hours, 48 hours, 6 days. The assay is classed as cell-based, human. As to conditions: 3 μl of 1 mM stock in 3 ml. The protocol: HL-60 cdm-1 cells were plated in a 6-well tissue culture plate (Falcon) in 3 ml of media (RPMI-1640 containing bovine insulin 5 mg/L, human transferrin 5 mg/L and Na Selenite 5 μg/L) at a density of 1×10^5 cells/ml. Duplicate wells received either ethanol (3 μl) or 3 μl of a stock solution of AGN 191701 (Compound 1, 1 mM in ethanol). The cells were cultured in a humidified incubator (5% CO2) at 37° C. in the dark for either 4 hours, 48 hours or 6 days. At the indicated times an aliquot of the cells (50 μl) was sedimented onto a microscope slide using a cytospin centrifuge. Sedimented cells were air dried, fixed in absolute methanol, stained with a Diffquick reagent kit, mounted in permount and visualized by brightfield light microscopy.

Assay [8] concerns chimeric RARα receptor protein. As to the kind of experiment: Cationic Liposome Mediated Transfection Assay, RARα. As to conditions: Table 1; 50% of maximum CAT activity of all-trans retinoic acid; HeLa cells. The assay is classed as cell-based. As to the method:
as §1
In connection with this assay it is known that retinoic acid receptors arena member of the steroid/thyroid receptor super family and that they contain domains which are interchangeable within individual receptors. Thus, plasmids for chimeric retinoid receptors containing estrogen DNA binding domain and estrogen response element chloramphenicol acetyl-transferase enzyme are constructed and are grown in specific cultured bacteria. […]
as §3

Assay [9] deals with human myeloid leukemia (HL-60 cdm1-1) cells. As to the kind of experiment: Induction of apoptotic cell death in HL-60 cdm-1 cells (general statement). The assay is classed as cell-based. As to conditions: compared with ethanol control. The protocol: In the assay, the human myeloid leukemia (HL-60 cdm1-1) cells are grown in cultures, and an RXR agonist compound, such as Compound 1 (AGN 191701) or Compound 3 (AGN 191659), is added to the culture.

Where [10] appears, read: Table 1; 50% of maximum CAT activity of AGN 191440; HeLa cells; read-out: EC50 RXRα.

Broadly, the EC50 is the concentration giving half of the maximal effect. Regarding `C/C(=C\c1cc(C(=O)O)cs1)c1cc2c(cc1C)C(C)(C)CCC2(C)C` [Compound 1, 2-[(E)-2-(5,6,7,8-tetrahydro-3,5,5,8,8-pentamethylnaphthalen-2-yl)propen-1-yl]thiophene-4-carboxylic acid], the values for the EC50 in assay [1], in [2] and in assay [3] (setting [10]) were 3350 nM, 1070 nM and 67 nM, respectively. Further, the “RAR / RXR agonist specificity” value in [4] was “RXR specific agonist”. In the assay on HL-60 cdm-1 cells [5], this compound displayed a cell counts of 70000 mL⁻¹. In addition, the “inspection of microscope slides” value with HL-60 cdm-1 cells [5] is given as “extensive cell death, almost all cells died”. The “DNA fragmentation (laddering)” value in the assay with HL-60 cdm-1 cells [6] is reported as “pattern of DNA fragmentation”. In the assay on HL-60 cdm-1 cells [7] (4 hours), the “cell morphology at 4 hours” value is “nuclear pyknosis and nuclear as well as cytoplasmic hyperchromicity with the formation of cytoplasmic extensions (large blobs)”. Further, the “cell morphology at 48 hours” value in the assay on HL-60 cdm-1 cells [7] (48 hours) is “extensive cell death with numerous hyperchromatic nuclear fragments either free in the media or contained with shrunken cell remnants”. Further, the “cell morphology after 6 days” value in the assay with HL-60 cdm-1 cells [7] (6 days) is recorded as “the same hyperchromatic nuclear remnants are detected but in addition there are scattered multinucleated syncitial cells”.

For the compound `C/C(=C\c1ccc(C(=O)O)cc1)c1cc2c(cc1C)C(C)(C)CCC2(C)C` [Compound 2, reference compound], the EC50 in assay [8] was found to be 3160 nM; in [1], 101 nM; in assay [2], 364 nM; in assay [3] (setting [10]) it was 448 nM.

For the compound `C/C(=C\c1ccc(C(=O)O)s1)c1cc2c(cc1C)C(C)(C)CCC2(C)C` [Compound 3, 2-[(E)-2-(5,6,7,8-tetrahydro-3,5,5,8-pentamethylnaphthalen-2-yl)propen-1-yl]-5-thiophenecarboxylic acid], the EC50 in assay [8] is above 1000 nM; in assay [1], 23 nM; in [2], 153 nM; in [3] (setting [10]), 11.2 nM. For the same compound, the “RAR / RXR agonist specificity” value in assay [4] is reported as “pan-agonist”.

In the case of `C/C(=C\c1ccc(C(=O)O)cc1)c1ccc2c(c1)C(C)(C)CCC2(C)C` [Compound 4, reference compound], in assay [3] (read-out: EC50 RXRα; Table 1; 50% of maximum CAT activity of AGN 191440; HeLa cells), the EC50 is above 10000 nM. In [4], the “RAR / RXR agonist specificity” value is “specific RAR agonist” and the “activity at RXR receptor sites” value is listed as “not active at RXR receptor sites”. Also, in assay [9], the apoptotic cell death result is “not active and not”. Moreover, in the assay with HL-60 cdm-1 cells [5], the cell counts is 460000 mL⁻¹ and the “inspection of microscope slides” value is “no difference between the control”.

These data come from patent US5399586A, “Treatment of mammals afflicted with tumors with compounds having RXR retinoid receptor agonist activity” (Allergan, Inc., priority 1993, dated 1995).
